Laboratory results reported in US8846115B2, “Anti-inflammatory cyclooxygenase inhibitors” (Metaproteomics, LLC, priority 2001, dated 2014).
Read-outs that look alike come from different tables or passages of the source.

## iso-alpha acids
pH 7.5
  Solubility (aqueous solution that can be made): 20 % aqueous solution
pH 9
  Solubility (aqueous solution that can be made): 30 % aqueous solution
